Key:
[1] = tested on: Forkhead; test: Forkhead dephosphorylation in LK; format: cell-based, rat; settings: data not shown
Procedure: The best-studied anti-apoptotic pathway in neurons is the PI-3 kinase-Akt signaling pathway (D'Mello et al., 1997; Dudek et al., 1997; Miller et al, 1997a). IGF-1, a potent survival-promotic factor for granule neurons mediates its effect by activating the PI-3 kinase-Akt pathway (Datta et al., 1997; Dudek et al., 1997; D'Mello et al., 1998). […] Switching cerebellar granule neurons from serum-containing HK medium in which they are cultured and allowed to mature, to serum-free LK or HK medium, causes a rapid downregulation of Akt phosphorylation and activity, which can be prevented by IGF-1 (Kumari et al., 2001). […] The same blot was reprobed with an antibody against phospho-Gskβ. Also loaded on the gel were lysates from untreated cultures (maintained in medium containing serum and high K+) and a culture treated for 1 hour with 25 ng/ml IGF-1. […] GSK3βis a proapoptotic molecule that is activated during apoptosis in many neuronal and normeuronal systems. Under survival promoting conditions GSK3β is kept inactivated by phosphorylation, a modification that can be induced by Akt. […] Another proapoptotic molecule that is phosphorylated and inactivated by Akt is the transcription factor, Forkhead ([…] et al., 2002). […] Switching of neurons to LK medium leads to a rapid downregulation of Akt activity within 2 hours.

[2] = molecular target: c-src (Homo sapiens, UniProt P12931); settings: Lackey et al., 2000; cited from earlier work
[3] = molecular target: T1, C-Raf (Rattus norvegicus, UniProt P11345); test: Activity of C-Raf immunoprecipitated from neuronal lysates, GST-MEK substrate, phospho-MEK Western; format: cell-based
T1 construct: Activities of endogenous C-Raf and B-Raf activity was assayed by measuring the ability of kinase immunoprecipitated from neuronal lysates; endogenous in cells; host or cells: primary rat cerebellar granule neurons
Procedure: The immunoprecipitated C-Raf was used in in vitro kinase assays using GST-MEK as substrate and the reaction products subjected to Western analysis. Phosphorylation of MEK was detected using a phospho-MEK antibody. […] After 1 hour of treatment, the cultures were lysed, C-Raf immunoprecipitated from the lysate and used in an in vitro kinase assay with MEK as substrate. The reaction mixture was subjected to Western analysis using a phospho-MEK antibody as probe.
(Hall-Jackson et al., 1999). […] Lysates from the cultures were used in a kinase reaction with MEK as substrate. […] Phosphorylation of MEK was detected by Western blot analysis using an phospho-MEK antibody and the same blot was reprobed with a C-Raf antibody.
After treatment, cultures of 7-8-day old neurons were washed twice with ice-cold PBS and lysed in ice cold lysis buffer. The lysates were centrifuged for 10 min at 10,000 rpm at 4° C. Protein concentrations of the supernatant were measured using a Bradford protein assay kit (Bio-Rad), and equivalent amounts of protein were incubated overnight with primary antibody (1.0-2 ug) and then for 2 h with 20 ul Protein A/G PLUS-Agarose (Santa Cruz Biotech.) Immunoprecipitates were collected by centrifugation at 2,500 rpm for 5 min at 4° C. and washed three times with lysis buffer, and pellets resuspended in electrophoresis sample buffer (187.5 mM Tris-HCl (pH 6.8 at 25° C.), 6% SDS, 30% glycerol, 150 mM DTT, 0.03% bromophenol blue), boiled for 4 min and subjected to SDS-polyacrylamide gel electrophoresis.
Activities of endogenous C-Raf and B-Raf activity was assayed by measuring the ability of kinase immunoprecipitated from neuronal lysates to phosphorylate a kinase-dead recombinant GST-MEK1 substrate. Following immunoprecipitation and multiple washes with lysis buffer, lysis buffer supplemented with 350 mM NaCl, and kinase buffer (25 mM HEPES pH 7.4 and 10 mM MgCl2), in vitro kinase assays are performed on the immune complexes using purified recombinant GST-MEK1 K97M protein as a substrate in kinase buffer supplemented with 85 μM ATP for 35 minutes at 30° C. Reactions are stopped by the addition of 3×SDS sample buffer and boiled for five minutes. Proteins are resolved by SDS-PAGE and subjected to Western blotting. The level of phosphorylated MEK is detected by a phospho-MEK antibody.

[4] = tested on: cerebellar granule neurons; test: MPP+-induced cell death in cerebellar granule neurons; format: cell-based, rat; settings: HK + 200 uM MPP+, different concentrations of GW5074, 24 hours
[5] = molecular target: MEK1 (Homo sapiens, UniProt Q02750); test: In vitro kinase assay, purified kinase (Upstate Kinase Profiling); format: biochemical; also: ATP 10 µM
Excerpt: (§1) (Lackey et al., 2000). […] A number of reports have implicated JNKs in the promotion of neuronal apoptosis both in vivo and in cell culture systems (Coffey et al., 2002). Although all three JNK proteins are expressed in neurons, the phosphorylation of c-jun is believed to be mediated by JNK2 or JNK3 (Bruckner et al., 2001; Bruckner and Estus, 2002; Coffey et al., 2002). […] In apoptotic neurons, JNK activation is mediated primarily by MKK7 (Eilers et al., 1998; Trotter et al., 2002).
(§2) In general, in vitro kinase assays were performed using purified kinase and synthetic substrates under standard conditions using the Kinase Profiling service of Upstate Biotechnology. Briefly, for each assay 5-10 mU of purified kinase was used. […] Kinase activity was quantified by measuring ^33P incorporation by spotting an aliquot on P30 filters, washing in 50 mM phosphoric acid and scintillation counting. The buffer composition for C-Raf, JNK1, JNK2, JNK3, MEK1, MKK6, MKK7 was 50 mM Tris pH7.5, 0.1 mM EGTA, 10 mM Mg acetate and [γ-^33P-ATP]. The peptide substrates used were as follows: For C-Raf, 0.66 mg/ml MBP; for cdks, 0.1 mg/ml histone H1; for JNKs, 3 uM ATF2; for MEK1, 1 uM MAPK2; for MKK6, 1 uM of SAPK2a and for MKK7, 2 uM JNK1α.

[6] = molecular target: MKK7 (Homo sapiens, UniProt O14733); test: as above; format: biochemical; also: ATP 10 µM
Excerpt: as §1, §2

[7] = molecular target: MKK6 (Homo sapiens, UniProt P52564); test: as above; format: biochemical; also: ATP 10 µM
Excerpt: as §1, §2

[8] = molecular target: GSK3β (Homo sapiens, UniProt P49841); test: as above; format: biochemical; also: ATP 10 µM
Excerpt: as §1, §2

[9] = molecular target: CDK2/cyclinE (Homo sapiens, UniProt P24941); test: as above; format: biochemical; also: ATP 10 µM
Excerpt: as §1, §2

[10] = molecular target: VEGFR2 (Homo sapiens, UniProt P35968); settings: Lackey et al., 2000; cited from earlier work
Chain of VEGFR2 (P35968 20-1356, species assumed): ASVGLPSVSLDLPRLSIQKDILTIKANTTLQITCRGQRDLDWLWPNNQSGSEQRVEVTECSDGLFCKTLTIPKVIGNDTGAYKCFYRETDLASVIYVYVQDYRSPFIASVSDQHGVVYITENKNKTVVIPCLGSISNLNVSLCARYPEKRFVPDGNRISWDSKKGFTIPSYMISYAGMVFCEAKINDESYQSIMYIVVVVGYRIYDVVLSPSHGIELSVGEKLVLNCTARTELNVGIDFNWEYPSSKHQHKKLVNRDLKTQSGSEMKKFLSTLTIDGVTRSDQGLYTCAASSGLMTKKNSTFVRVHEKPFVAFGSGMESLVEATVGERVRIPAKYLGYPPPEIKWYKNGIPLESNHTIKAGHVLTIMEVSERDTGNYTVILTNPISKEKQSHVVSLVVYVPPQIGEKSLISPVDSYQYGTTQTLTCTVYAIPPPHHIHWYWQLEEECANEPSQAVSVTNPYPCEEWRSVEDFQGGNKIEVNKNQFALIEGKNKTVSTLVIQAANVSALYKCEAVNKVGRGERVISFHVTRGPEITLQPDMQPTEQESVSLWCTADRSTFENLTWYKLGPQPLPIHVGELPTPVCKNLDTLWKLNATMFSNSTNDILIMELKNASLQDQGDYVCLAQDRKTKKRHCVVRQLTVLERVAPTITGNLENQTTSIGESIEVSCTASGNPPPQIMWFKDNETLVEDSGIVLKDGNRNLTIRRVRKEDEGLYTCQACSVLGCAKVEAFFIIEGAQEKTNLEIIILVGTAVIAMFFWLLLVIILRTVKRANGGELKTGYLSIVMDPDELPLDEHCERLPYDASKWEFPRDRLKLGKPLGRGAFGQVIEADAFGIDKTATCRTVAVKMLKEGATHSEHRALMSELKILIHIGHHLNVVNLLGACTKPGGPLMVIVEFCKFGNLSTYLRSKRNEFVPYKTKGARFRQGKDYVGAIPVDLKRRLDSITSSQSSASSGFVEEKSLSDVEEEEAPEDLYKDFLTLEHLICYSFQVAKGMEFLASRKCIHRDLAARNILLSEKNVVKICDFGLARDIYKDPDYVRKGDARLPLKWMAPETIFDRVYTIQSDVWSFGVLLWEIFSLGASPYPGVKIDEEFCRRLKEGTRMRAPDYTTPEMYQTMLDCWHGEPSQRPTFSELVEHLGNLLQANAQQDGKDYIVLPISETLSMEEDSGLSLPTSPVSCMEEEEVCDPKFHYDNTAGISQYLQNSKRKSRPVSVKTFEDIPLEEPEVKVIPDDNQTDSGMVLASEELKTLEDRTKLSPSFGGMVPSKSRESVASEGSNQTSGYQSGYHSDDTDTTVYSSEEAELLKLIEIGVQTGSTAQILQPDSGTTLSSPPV

T1 sequence (P11345 whole entry): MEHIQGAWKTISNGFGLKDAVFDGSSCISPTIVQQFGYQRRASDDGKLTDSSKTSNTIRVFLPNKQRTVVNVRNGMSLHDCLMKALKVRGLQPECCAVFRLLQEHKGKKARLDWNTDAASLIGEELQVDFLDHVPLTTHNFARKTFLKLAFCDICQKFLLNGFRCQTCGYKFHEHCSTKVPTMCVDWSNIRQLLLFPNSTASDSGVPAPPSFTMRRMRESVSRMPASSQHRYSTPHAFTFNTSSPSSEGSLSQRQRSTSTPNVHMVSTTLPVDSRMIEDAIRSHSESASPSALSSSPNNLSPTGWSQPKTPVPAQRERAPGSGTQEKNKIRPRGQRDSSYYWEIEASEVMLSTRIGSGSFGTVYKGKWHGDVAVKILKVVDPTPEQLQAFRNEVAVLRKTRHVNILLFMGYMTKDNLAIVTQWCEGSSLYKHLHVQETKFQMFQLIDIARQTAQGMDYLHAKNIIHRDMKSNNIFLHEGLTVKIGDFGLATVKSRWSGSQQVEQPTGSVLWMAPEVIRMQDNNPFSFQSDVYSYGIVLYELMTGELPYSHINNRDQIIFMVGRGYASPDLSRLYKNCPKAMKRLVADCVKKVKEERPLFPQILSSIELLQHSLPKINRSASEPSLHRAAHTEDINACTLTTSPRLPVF
Chain of c-src (P12931 whole entry, species assumed): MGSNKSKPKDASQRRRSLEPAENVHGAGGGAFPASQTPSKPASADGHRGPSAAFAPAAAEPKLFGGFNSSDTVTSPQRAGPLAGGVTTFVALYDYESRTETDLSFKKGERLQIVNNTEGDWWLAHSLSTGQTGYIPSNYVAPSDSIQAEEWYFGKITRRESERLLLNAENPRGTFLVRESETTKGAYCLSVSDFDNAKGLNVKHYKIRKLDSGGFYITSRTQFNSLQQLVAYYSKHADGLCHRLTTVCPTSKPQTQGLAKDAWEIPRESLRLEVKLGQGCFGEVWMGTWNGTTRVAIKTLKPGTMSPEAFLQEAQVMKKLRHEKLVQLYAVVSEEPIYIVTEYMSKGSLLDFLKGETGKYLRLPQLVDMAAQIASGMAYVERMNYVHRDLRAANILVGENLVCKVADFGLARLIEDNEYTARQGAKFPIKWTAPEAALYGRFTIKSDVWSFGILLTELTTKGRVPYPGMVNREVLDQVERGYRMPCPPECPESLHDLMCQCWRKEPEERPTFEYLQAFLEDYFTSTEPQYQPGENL
Chain of GSK3β (P49841 whole entry, species assumed): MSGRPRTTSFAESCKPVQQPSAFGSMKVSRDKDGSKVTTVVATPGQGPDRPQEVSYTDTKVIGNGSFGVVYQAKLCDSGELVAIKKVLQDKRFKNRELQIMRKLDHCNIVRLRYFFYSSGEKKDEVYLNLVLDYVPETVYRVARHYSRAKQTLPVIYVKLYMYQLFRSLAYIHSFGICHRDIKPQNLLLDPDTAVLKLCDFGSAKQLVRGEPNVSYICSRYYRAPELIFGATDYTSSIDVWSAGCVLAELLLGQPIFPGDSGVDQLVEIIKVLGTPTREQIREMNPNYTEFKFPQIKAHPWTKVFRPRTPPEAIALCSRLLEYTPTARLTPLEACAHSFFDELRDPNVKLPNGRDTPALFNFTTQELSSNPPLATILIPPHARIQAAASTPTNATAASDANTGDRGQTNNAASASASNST
Chain of MKK6 (P52564 whole entry, species assumed): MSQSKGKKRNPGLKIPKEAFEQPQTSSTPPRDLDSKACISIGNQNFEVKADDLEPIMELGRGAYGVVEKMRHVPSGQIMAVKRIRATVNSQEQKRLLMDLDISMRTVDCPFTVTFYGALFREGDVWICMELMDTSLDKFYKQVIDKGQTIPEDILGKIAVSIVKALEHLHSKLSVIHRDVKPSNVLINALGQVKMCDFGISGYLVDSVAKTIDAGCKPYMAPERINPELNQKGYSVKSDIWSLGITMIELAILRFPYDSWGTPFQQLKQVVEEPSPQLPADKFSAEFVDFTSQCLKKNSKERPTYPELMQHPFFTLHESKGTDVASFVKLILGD
Chain of MKK7 (O14733 whole entry, species assumed): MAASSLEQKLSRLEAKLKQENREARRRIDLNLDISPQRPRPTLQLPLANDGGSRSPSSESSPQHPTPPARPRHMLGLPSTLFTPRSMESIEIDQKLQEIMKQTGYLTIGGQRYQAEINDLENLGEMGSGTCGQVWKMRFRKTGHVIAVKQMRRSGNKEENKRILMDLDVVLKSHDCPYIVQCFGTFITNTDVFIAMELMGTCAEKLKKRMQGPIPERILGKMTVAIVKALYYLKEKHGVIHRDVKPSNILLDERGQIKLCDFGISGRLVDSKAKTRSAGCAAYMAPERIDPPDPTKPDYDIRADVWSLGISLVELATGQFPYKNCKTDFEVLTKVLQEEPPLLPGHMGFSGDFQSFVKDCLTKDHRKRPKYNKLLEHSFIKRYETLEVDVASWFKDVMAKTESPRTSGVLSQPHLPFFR
Chain of MEK1 (Q02750 whole entry, species assumed): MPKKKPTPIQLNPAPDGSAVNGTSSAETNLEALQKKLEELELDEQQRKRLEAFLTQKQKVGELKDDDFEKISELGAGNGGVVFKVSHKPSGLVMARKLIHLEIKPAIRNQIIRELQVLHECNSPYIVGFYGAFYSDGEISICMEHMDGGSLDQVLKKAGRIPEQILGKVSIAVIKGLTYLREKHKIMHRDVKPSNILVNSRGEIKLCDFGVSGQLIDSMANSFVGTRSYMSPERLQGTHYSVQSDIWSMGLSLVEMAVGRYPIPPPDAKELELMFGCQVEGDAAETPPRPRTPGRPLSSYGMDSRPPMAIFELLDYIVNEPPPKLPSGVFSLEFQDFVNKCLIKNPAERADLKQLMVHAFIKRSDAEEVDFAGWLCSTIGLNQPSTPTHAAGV

Compound: O=C1Nc2ccc(I)cc2C1=Cc1cc(Br)c(O)c(Br)c1 [GW5074, 5-Iodo-3-[(3,5-dibromo-4-hydroxyphenyl)methylene]-2-indolinone]
- dephosphorylation of Forkhead in LK [1]: reduces the dephosphorylation
- effect on activity of c-src [2]: no effect
- concentration inhibiting immunoprecipitated C-Raf when added in vitro ([3]; GW5074 added to the immunoprecipitated enzyme in the kinase reaction): lower than 1 uM
- activity of C-Raf immunoprecipitated from treated cultures ([3]; LK + GW5074 0.25-5 uM, 1 hour): marked induction
- MPP+-induced cell death [4]: reduced MPP^+-induced cell death
- activity at 1 µM [5]: 94 ± 4%
- activity at 1 µM [6]: 104 ± 8%
- activity at 1 µM [7]: 91 ± 4%
- activity at 1 µM [8]: 81 ± 6%
- activity at 1 µM [9]: 100 ± 5%
- effect on activity of VEGFR2 [10]: no effect
